Reference: patent publication USRE42890E1, “Furazanobenzimidazoles” (Basilea Pharmaceutica AG, priority 2003, dated 2011)

How the values were obtained:
[1] = test system: Jily; test: MTS proliferation assay, Jily; format: cell-based; conditions: 72 h incubation, read-out: MTS proliferation assay IC 50 Jily
Method: Cell lines are cultured in RPMI-1640 tissue culture medium containing either 5% or 10% fetal calf serum, 0.05 mM 2-mercaptoethanol, 2 mM glutamine and penicillin/streptomycin 50 μg/ml (complete medium) (Sigma, Buchs, Switzerland). General growth conditions are 37° C. and 7.5% CO2.
The assay is performed in 96 well tissue culture plates. The cells (range: 1.5*10^3-10^4) are seeded out in 80 μl complete medium 24 h prior to compound treatment. The test compounds are added in 20 μl complete medium containing max 5% DMSO. The final compound concentrations in the assays are 10 μM, 3 μM, 1 μM and 0.3 μM, respectively. The assay plates are incubated for 72 h at culture conditions. The MTS reagent is prepared according to the manufacturer's protocol (Promega G1111). 20 μl MTS reagent are added to each well, the assay plates are quickly spun and incubated for another 3 h at culture conditions. Subsequently, the plates are shortly shaked and absorption measured with a microplate-reader at 492 nm.

[2] = test system: adherent cells or suspension cells; test: Hoechst 33342 nuclear staining (fraction of apoptotic nuclei); format: cell-based; set-up: key: 0 relating to no activity; 1 relating to weak activity comprising less than 70% of the cells; score 2 relating to strong activity comprising more than 70% of the cells
[3] = test system: Jurkat; test: MTS proliferation assay, Jurkat; format: cell-based, human; conditions: 72 h incubation, read-out: MTS proliferation assay IC 50 Jurkat
Method in brief: (§1)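 Absorbance at 492 nm after 3 h with MTS reagent gave proliferation. This followed 72 h compound exposure (final 0.3, 1, 3, 10 μM) at 37 °C and 7.5% CO2. Cells had been plated 24 h earlier in complete RPMI-1640 with 5% or 10% FCS.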

[4] = test system: HT1080; test: MTS proliferation assay, HT1080; format: cell-based, human; conditions: HT1080, 72 h incubation; read-out: MTS proliferation assay IC 50 HT1080
Method in brief: as §1

[5] = test system: MRC5; test: MTS proliferation assay, MRC5; format: cell-based; conditions: MRC5, 72 h incubation; read-out: MTS proliferation assay IC 50 MRC5
Method in brief: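 Antiproliferative read-out by MTS (3 h, A492) after 72 h compound exposure at final 0.3–10 μM (four concentrations). Cells were plated 24 h earlier in RPMI-1640 containing 5% or 10% FCS, cultured at 37 °C with 7.5% CO2.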

[6] = test system: HeLa; test: MTS proliferation assay, HeLa; format: cell-based, human; conditions: 72 h incubation, read-out: MTS proliferation assay IC 50 HeLa
Method in brief: as §1

SMILES	IC50 [4]	IC50 [6]	IC50 [1]	Hoechst 33342 nuclear staining score ([2]; H460, conc 0.01 μm)	Hoechst 33342 nuclear staining score ([2]; HeLa, conc 0.01 μm)	Hoechst 33342 nuclear staining score ([2]; HeLa, conc 0.1 μm)	Hoechst 33342 nuclear staining score ([2]; HeLa, conc 1 μm)	Hoechst 33342 nuclear staining score ([2]; Jily, conc 0.01 μm)	Hoechst 33342 nuclear staining score ([2]; Jily, conc 0.1 μm)	Hoechst 33342 nuclear staining score ([2]; Jily, conc 1 μm)	Hoechst 33342 nuclear staining score ([2]; Jurkat, conc 0.01 μm)	Hoechst 33342 nuclear staining score ([2]; Jurkat, conc 0.1 μm)	Hoechst 33342 nuclear staining score ([2]; Jurkat, conc 1 μm)	Hoechst 33342 nuclear staining score ([2]; MRC5, conc 0.01 μm)	Hoechst 33342 nuclear staining score ([2]; MRC5, conc 0.1 μm)	Hoechst 33342 nuclear staining score ([2]; MRC5, conc 1 μm)	Hoechst 33342 nuclear staining score ([2]; PBLs, conc 0.01 μm)	Hoechst 33342 nuclear staining score ([2]; PBLs, conc 0.1 μm)	Hoechst 33342 nuclear staining score ([2]; PBLs, conc 1 μm)	IC50 [5]	further results
Nc1ccc(OCn2c(-c3nonc3N)nc3ccccc32)cc1 [Example 99]	> 1000 nM	> 1000 nM	100 to 1000 nM	0	0	0	0	0	0	1 (1 relating to weak activity comprising less than 70% of the cells)	0	0	1 (1 relating to weak activity comprising less than 70% of the cells)	0	0	0	0	0	0	> 1000 nM	Hoechst 33342 nuclear staining score ([2]; H460, conc 0.1 μm): 0; Hoechst 33342 nuclear staining score ([2]; H460, conc 1 μm): 0; IC50 [3]: 100 to 1000 nM
Nc1nonc1-c1nc2ccccc2n1COc1cc(C(F)(F)F)cc(C(F)(F)F)c1 [Example 102]	> 1000 nM	> 1000 nM	100 to 1000 nM	0	0	0	0	0	0	1 (1 relating to weak activity comprising less than 70% of the cells)	0	0	2 (score 2 relating to strong activity comprising more than 70% of the cells)	0	0	0	0	0	0	100 to 1000 nM	Hoechst 33342 nuclear staining score ([2]; H460, conc 0.1 μm): 0; Hoechst 33342 nuclear staining score ([2]; H460, conc 1 μm): 1 (1 relating to weak activity comprising less than 70% of the cells)

Continued, in another order:

IC50 [4]	IC50 [6]	SMILES	IC50 [1]	Hoechst 33342 nuclear staining score ([2]; H460, conc 0.01 μm)	Hoechst 33342 nuclear staining score ([2]; HeLa, conc 0.01 μm)	Hoechst 33342 nuclear staining score ([2]; HeLa, conc 0.1 μm)	Hoechst 33342 nuclear staining score ([2]; HeLa, conc 1 μm)	Hoechst 33342 nuclear staining score ([2]; Jily, conc 0.01 μm)	Hoechst 33342 nuclear staining score ([2]; Jily, conc 0.1 μm)	Hoechst 33342 nuclear staining score ([2]; Jily, conc 1 μm)	Hoechst 33342 nuclear staining score ([2]; Jurkat, conc 0.01 μm)	Hoechst 33342 nuclear staining score ([2]; Jurkat, conc 0.1 μm)	Hoechst 33342 nuclear staining score ([2]; Jurkat, conc 1 μm)	Hoechst 33342 nuclear staining score ([2]; MRC5, conc 0.01 μm)	Hoechst 33342 nuclear staining score ([2]; MRC5, conc 0.1 μm)	Hoechst 33342 nuclear staining score ([2]; MRC5, conc 1 μm)	Hoechst 33342 nuclear staining score ([2]; PBLs, conc 0.01 μm)	Hoechst 33342 nuclear staining score ([2]; PBLs, conc 0.1 μm)	Hoechst 33342 nuclear staining score ([2]; PBLs, conc 1 μm)	IC50 [5]	further results
< 10 nM	< 10 nM	N#CCCNc1nonc1-c1nc2ccccc2n1CC(=O)c1ccc(N)nc1 [Example 79]	< 10 nM	2 (score 2 relating to strong activity comprising more than 70% of the cells)	2 (score 2 relating to strong activity comprising more than 70% of the cells)	2 (score 2 relating to strong activity comprising more than 70% of the cells)	2 (score 2 relating to strong activity comprising more than 70% of the cells)	2 (score 2 relating to strong activity comprising more than 70% of the cells)	2 (score 2 relating to strong activity comprising more than 70% of the cells)	2 (score 2 relating to strong activity comprising more than 70% of the cells)	2 (score 2 relating to strong activity comprising more than 70% of the cells)	2 (score 2 relating to strong activity comprising more than 70% of the cells)	2 (score 2 relating to strong activity comprising more than 70% of the cells)	1 (1 relating to weak activity comprising less than 70% of the cells)	2 (score 2 relating to strong activity comprising more than 70% of the cells)	2 (score 2 relating to strong activity comprising more than 70% of the cells)	0	0	0	< 10 nM	Hoechst 33342 nuclear staining score ([2]; H460, conc 0.1 μm): 2 (score 2 relating to strong activity comprising more than 70% of the cells); Hoechst 33342 nuclear staining score ([2]; H460, conc 1 μm): 2 (score 2 relating to strong activity comprising more than 70% of the cells); IC50 [3]: < 10 nM
> 1000 nM	> 1000 nM	Nc1nonc1-c1nc2ccccc2n1COc1ccc([N+](=O)[O-])cc1 [Example 98]	100 to 1000 nM	0	0	0	0	0	0	2 (score 2 relating to strong activity comprising more than 70% of the cells)	0	0	2 (score 2 relating to strong activity comprising more than 70% of the cells)	0	0	0	0	0	0	> 1000 nM	Hoechst 33342 nuclear staining score ([2]; H460, conc 0.1 μm): 0; Hoechst 33342 nuclear staining score ([2]; H460, conc 1 μm): 0; IC50 [3]: 100 to 1000 nM
100 to 1000 nM	100 to 1000 nM	Nc1nonc1-c1nc2ccccc2n1COc1ccc(Cl)cc1 [Example 88]	100 to 1000 nM	–	0	0	2 (score 2 relating to strong activity comprising more than 70% of the cells)	0	0	1 (1 relating to weak activity comprising less than 70% of the cells)	0	0	2 (score 2 relating to strong activity comprising more than 70% of the cells)	0	0	0	0	0	0	100 to 1000 nM	IC50 [3]: 100 to 1000 nM
10 to 100 nM	10 to 100 nM	CCc1ccc(C(=O)Cn2c(-c3nonc3NCCC#N)nc3ccccc32)cc1 [Example 56]	10 to 100 nM	0	0	1 (1 relating to weak activity comprising less than 70% of the cells)	2 (score 2 relating to strong activity comprising more than 70% of the cells)	0	2 (score 2 relating to strong activity comprising more than 70% of the cells)	2 (score 2 relating to strong activity comprising more than 70% of the cells)	0	2 (score 2 relating to strong activity comprising more than 70% of the cells)	2 (score 2 relating to strong activity comprising more than 70% of the cells)	0	1 (1 relating to weak activity comprising less than 70% of the cells)	1 (1 relating to weak activity comprising less than 70% of the cells)	0	0	0	10 to 100 nM	Hoechst 33342 nuclear staining score ([2]; H460, conc 0.1 μm): 0; Hoechst 33342 nuclear staining score ([2]; H460, conc 1 μm): 2 (score 2 relating to strong activity comprising more than 70% of the cells)
